Common to all, as to type: physicochemical
Series [1] in a line: n-octanol/water partition coefficient (log P). The protocol:
Equal volumes (2000 mL) of n-octanol and water were thoroughly mixed using an oscillator and separated after 24 h. Yb^3+ complex (0.1 mg each) was then dissolved in 40 mL of the separated n-octanol and the solution and 40 mL of water (previously separated from the mixture) was added. The new water–octanol system was allowed to equilibrate for additional 24 h. After separation, both fractions were analyzed by UV-vis spectra. The log P values were calculated with the following equation:[80]1 log P = log(Coctanol/Cwater)where Coctanol and Cwater refer to the concentrations of Yb^3+ complexes in n-octanol and water, respectively.

Series [2] can be described thus: NIR luminescence decay lifetime monitored at 980 nm. The following applies: for Decay lifetime (τobs): bovine albumin (BSA), air-saturated, 0.1% DMSO. On the procedure:
Emission, excitation spectra and lifetime were measured on an Edinburgh Analytical Instruments FLS980 lifetime and steady state spectrometer equipped with a 450 W Xe lamp, a 60 W microsecond flash lamp, PMT R928 for the visible emission spectrum, HAMAMATSU R5509-73 PMT with a C9940-02 cooler for the NIR emission spectrum and luminescence lifetime. Excitation and emission spectra were corrected for instrumental functions (including the correction for detector, gratings etc.). All luminescence decays were exponentially tail-fitted by monoexponential functions without deconvolution for the negligible instrumental reference function in the NIR region.

A short description of series [3]: NIR luminescence quantum yield, comparative method vs YbTPP(LOEt). On the procedure:
Quantum yields in solution were determined using a comparative method and the equation: Φs/Φr = (Gs/Gr) × (ηs^2/ηr^2), where the subscripts r and s denote the reference and sample respectively, Φ is the quantum yield, G is the slope from the plot of integrated emission intensity vs. absorbance, and η is the refractive index of the solvent.[79] The reference was YbTPP(LOEt) in CH2Cl2 ([…]).[53] Generally, YbTPP(LOEt) and the solution of Yb^3+ complex with 4 different concentrations were firstly prepared in the corresponding solvents. The absorbance of all the solutions at 410 nm was recorded on an Agilent 8453 UV-vis spectrometer equipped with an Agilent 89090A thermostat (±0.1 °C) and NIR emissions were recorded on an Edinburgh Analytical Instruments FLS980 lifetime and steady state spectrometer with the excitation wavelength at 410 nm under identical conditions. According to the ratio of the slope GYb – x/Gr (x = 1–5, 2c–5c), the relative quantum yield of Yb^3+ complexes could be obtained according to the equation described above. The absorbance values of all the samples and references are below 0.1 and the absorbance values undergo background correction by subtracting the average over a range from 800 to 820 nm. The integrated emission intensity integrated from 880 nm to 1150 nm was obtained by subtracting the blank (integrated emission intensity with only the pure solvent under identical conditions). The estimated error for the quantum yield measurements is 15%. For the quantum yield measured in degassed solution, solutions of Yb^3+ complexes with 4 different concentrations were degassed via 5 freeze–pump–thaw cycles. Then the measurement and calculation were the same as above.

A short description of series [4]: Stability in solution and aqueous media (absorption / NIR luminescence, dark and 405 nm laser). From the text:
We also measured the ^2D NMR of Yb-4 in CH3OH as an example (Fig. S75 ^†) and only one single peak was observed.
Fig. 2 (a) Spectroscopic evaluation of Yb-4 photostability in water, PBS and FBS with 0.1% DMSO under irradiation of a 405 nm laser (0.2 W cm^–2) (inset: dark stability); (b) spectroscopic evaluation of Yb-4 and Yb-4c stabilities in pH = 5 PBS with 0.1% DMSO under irradiation of a 405 nm laser (0.2 W cm^–2). Emission intensity values were referenced to the emission intensity of Yb^3+ (980 nm) at 0 h.

[5] abbreviates: DMSO, air-equil., monitored at 980 nm.
The mark [6] stands for this setting: DMSO, degassed, monitored at 980 nm.
[7] abbreviates: H2O with 0.1% DMSO, air-equil., monitored at 980 nm.
[8] abbreviates: H2O with 0.1% DMSO, degassed, monitored at 980 nm.

Molecules are shown by their SMILES. Where “and” joins values, the source holds several entries; their conditions need not be identical. Identical values can stand only once.

`OC[C@H]1O[C@@H](Oc2ccc(C3=C4N=C(C(F)=C4F)C(c4ccc(O[C@@H]5O[C@H](CO)[C@@H](O)[C@H](O)[C@H]5O)cc4)=c4c(F)c(F)c5[n]4[Yb+][n]4c3c(F)c(F)c4C(c3ccc(O[C@@H]4O[C@H](CO)[C@@H](O)[C@H](O)[C@H]4O)cc3)=C3N=C(C(F)=C3F)C=5c3ccc(O[C@@H]4O[C@H](CO)[C@@H](O)[C@H](O)[C@H]4O)cc3)cc2)[C@H](O)[C@@H](O)[C@@H]1O.[2H]C([2H])([2H])O[P](=O)(OC([2H])([2H])[2H])[Co-]([CH]1C=CC=C1)([P](=O)(OC([2H])([2H])[2H])OC([2H])([2H])[2H])[P](=O)(OC([2H])([2H])[2H])OC([2H])([2H])[2H]` [Yb-1]: the “log Po/w” value in series [1] is recorded as 1.32. In addition, the τobs is recorded as 161(5) μs in series [2] (setting [5]), 165(4) μs in series [2] (setting [6]), 95(2) μs in series [2] (setting [7]) and 96(3) μs in series [2] (setting [8]). In addition, the “Decay lifetime (τobs)” value in series [2] (monitored at 980 nm) was 100(3). Moreover, the ΦYb is reported as 16(2) % in series [3] (DMSO, air-equil.); 16(2) % in series [3] (DMSO, degassed); 7.6(0.4) % in series [3] (H2O with 0.1% DMSO, air-equil.); 7.7(0.5) % in series [3] (H2O with 0.1% DMSO, degassed).
With `O=C(O)c1ccc(C2=C3C=CC(=N3)C(c3c(F)c(F)c(F)c(F)c3F)=c3ccc4[n]3[Yb+][n]3c2ccc3C(c2c(F)c(F)c(F)c(F)c2F)=C2C=CC(=N2)C=4c2c(F)c(F)c(F)c(F)c2F)cc1.[2H]C([2H])([2H])O[P](=O)(OC([2H])([2H])[2H])[Co-]([CH]1C=CC=C1)([P](=O)(OC([2H])([2H])[2H])OC([2H])([2H])[2H])[P](=O)(OC([2H])([2H])[2H])OC([2H])([2H])[2H]` [Yb-2c], the “log Po/w” value in series [1] was determined as 1.26. Moreover, the τobs in series [2] (setting [5]) is 52(2) μs; in series [2] (setting [6]) it was 52(2) μs; in series [2] (setting [7]) it was 38(1) μs; in series [2] (setting [8]) it was 41(2) μs. The ΦYb in series [3] (DMSO, air-equil.) was 6.2(0.2) %; in series [3] (DMSO, degassed), 6.0(0.2) %; in series [3] (H2O with 0.1% DMSO, air-equil.), 2.5(0.2) %; in series [3] (H2O with 0.1% DMSO, degassed), 2.6(0.2) %.
`FC1=C(F)C2=C(c3ccc(C[P+](c4ccccc4)(c4ccccc4)c4ccccc4)cc3)c3c(F)c(F)c4[n]3[Yb+][n]3c(c(F)c(F)c3=C(c3ccc(C[P+](c5ccccc5)(c5ccccc5)c5ccccc5)cc3)C3=NC(=C4c4ccc(C[P+](c5ccccc5)(c5ccccc5)c5ccccc5)cc4)C(F)=C3F)=C(c3ccc(C[P+](c4ccccc4)(c4ccccc4)c4ccccc4)cc3)C1=N2.[2H]C([2H])([2H])O[P](=O)(OC([2H])([2H])[2H])[Co-]([CH]1C=CC=C1)([P](=O)(OC([2H])([2H])[2H])OC([2H])([2H])[2H])[P](=O)(OC([2H])([2H])[2H])OC([2H])([2H])[2H].[Cl-].[Cl-].[Cl-].[Cl-]` [Yb-3]: the “log Po/w” value in series [1] was determined as 0.56. Also, the τobs is 205(2) μs in series [2] (setting [5]), 213(5) μs in series [2] (setting [6]), 56(2) μs in series [2] (setting [7]) and 58(3) μs in series [2] (setting [8]). Also, the “Decay lifetime (τobs)” value in series [2] (monitored at 980 nm) is on record as 90(2). Further, the ΦYb in series [3] (DMSO, air-equil.) is on record as 20(1) %; in series [3] (DMSO, degassed), 21(2) %; in series [3] (H2O with 0.1% DMSO, air-equil.) it was 5.1(0.2) %; in series [3] (H2O with 0.1% DMSO, degassed) it was 5.2(0.3) %.
On to `C1=CC2=C(c3ccc(C[P+](c4ccccc4)(c4ccccc4)c4ccccc4)cc3)c3ccc4[n]3[Yb+][n]3c(ccc3=C(c3ccc(C[P+](c5ccccc5)(c5ccccc5)c5ccccc5)cc3)C3=NC(=C4c4ccc(C[P+](c5ccccc5)(c5ccccc5)c5ccccc5)cc4)C=C3)=C(c3ccc(C[P+](c4ccccc4)(c4ccccc4)c4ccccc4)cc3)C1=N2.[2H]C([2H])([2H])O[P](=O)(OC([2H])([2H])[2H])[Co-]([CH]1C=CC=C1)([P](=O)(OC([2H])([2H])[2H])OC([2H])([2H])[2H])[P](=O)(OC([2H])([2H])[2H])OC([2H])([2H])[2H].[Cl-].[Cl-].[Cl-].[Cl-]` [Yb-3c], for which the “log Po/w” value in series [1] is on record as 0.24. For the same molecule, the τobs in series [2] (setting [5]) was 49(1) μs; in series [2] (setting [6]) it was 51(2) μs; in series [2] (setting [7]) it was 25(1) μs; in series [2] (setting [8]) it was 26(2) μs. For the same molecule, the ΦYb in series [3] (DMSO, air-equil.) is 5.6(0.2) %; in series [3] (DMSO, degassed) it was 5.6(0.2) %; in series [3] (H2O with 0.1% DMSO, air-equil.) it was 1.4(0.1) %; in series [3] (H2O with 0.1% DMSO, degassed) it was 1.4(0.1) %.
For `C[N+]1(C)CC2(F)C3=NC(=C(c4c(F)c(F)c(F)c(F)c4F)c4c(F)c(F)c5[n]4[Yb+][n]4c(c(F)c(F)c4=C3c3c(F)c(F)c(F)c(F)c3F)=C(c3c(F)c(F)c(F)c(F)c3F)C3=NC(=C5c4c(F)c(F)c(F)c(F)c4F)C(F)=C3F)C2(F)C1.[2H]C([2H])([2H])O[P](=O)(OC([2H])([2H])[2H])[Co-]([CH]1C=CC=C1)([P](=O)(OC([2H])([2H])[2H])OC([2H])([2H])[2H])[P](=O)(OC([2H])([2H])[2H])OC([2H])([2H])[2H].[I-]` (stereo not drawn) [Yb-4], in series [1], the “log Po/w” value came to 1.34. For the same molecule, the photostability result in series [4] (pH = 5 PBS with 0.1% DMSO, 405 nm laser 0.2 W cm^–2) is listed as “photostable over 4 h”. The “NIR luminescence under continuous irradiation” value in series [4] (water, PBS and FBS with 0.1% DMSO, 405 nm laser, 0.2 W cm^–2) is recorded as “did not significantly change”. Besides, the dark stability entry in series [4] (water, PBS and FBS with 0.1% DMSO, NIR luminescence) is given as “high dark stability over 48 h”. The τobs in series [2] (setting [5]) was 173(4) μs; in series [2] (setting [6]), 187(8) μs; in series [2] (setting [7]), 140 μs and 140(5) μs; in series [2] (setting [8]) it was 142(5) μs; in series [2] (ethanol, air-equil., λex = 410 nm, 980 nm), 86(4) μs; in series [2] (ethanol, degassed, λex = 410 nm, 980 nm), 99(2) μs. For the same molecule, the τobs in series [2] (glycerol, air-equil., λex = 410 nm, 980 nm) is given as 192(4) μs; in series [2] (glycerol, degassed, λex = 410 nm, 980 nm) it was 195(5) μs; in series [2] (i-propanol, air-equil., λex = 410 nm, 980 nm), 110(5) μs; in series [2] (i-propanol, degassed, λex = 410 nm, 980 nm), 120(3) μs; in series [2] (methanol, air-equil., λex = 410 nm, 980 nm) it was 68(2) μs; in series [2] (methanol, degassed, λex = 410 nm, 980 nm), 74(3) μs. Also, the τobs in series [2] (t-butanol, air-equil., λex = 410 nm, 980 nm) is 117(4) μs; in series [2] (t-butanol, degassed, λex = 410 nm, 980 nm) it was 127(3) μs. The “Decay lifetime (τobs)” value in series [2] (monitored at 980 nm) was 145(3). Moreover, the ΦYb in series [3] (DMSO, air-equil.) was 17(2) %; in series [3] (DMSO, degassed), 18(2) %; in series [3] (H2O with 0.1% DMSO, air-equil.), 10% and 10(1) %; in series [3] (H2O with 0.1% DMSO, degassed), 10(1) %. Further, in series [3] (H2O, air-saturated), the “ΦYb and τobs in H2O relative to Yb-4c” value is on record as 4 fold.
As for `C[N+]1(C)CC2C3=NC(=C(c4c(F)c(F)c(F)c(F)c4F)c4ccc5[n]4[Yb+][n]4c(ccc4=C3c3c(F)c(F)c(F)c(F)c3F)=C(c3c(F)c(F)c(F)c(F)c3F)C3=NC(=C5c4c(F)c(F)c(F)c(F)c4F)C=C3)C2C1.[2H]C([2H])([2H])O[P](=O)(OC([2H])([2H])[2H])[Co-]([CH]1C=CC=C1)([P](=O)(OC([2H])([2H])[2H])OC([2H])([2H])[2H])[P](=O)(OC([2H])([2H])[2H])OC([2H])([2H])[2H].[I-]` (stereo not drawn) [Yb-4c], the “log Po/w” value in series [1] was found to be 1.33. The photobleaching in series [4] (pH = 5 PBS with 0.1% DMSO, 405 nm laser 0.2 W cm^–2, 4 h) was found to be 55%. The τobs in series [2] (setting [5]) is 49(2) μs; in series [2] (setting [6]), 50(2) μs; in series [2] (setting [7]), 35 μs and 35(1) μs; in series [2] (setting [8]) it was 38(2) μs. Moreover, the ΦYb in series [3] (DMSO, air-equil.) is 5.4(0.2) %; in series [3] (DMSO, degassed), 5.5(0.2) %; in series [3] (H2O with 0.1% DMSO, air-equil.), 2.3% and 2.3(0.2) %; in series [3] (H2O with 0.1% DMSO, degassed) it was 2.4(0.1) %.

Source of the values: article PMC5939605, “Highly luminescent, biocompatible ytterbium(III) complexes as near-infrared fluorophores for living cell imaging” (Chemical Science, 2018).
